We go through one compound from publication PMC2787699 (Biochemistry, 2009).

For this experiment, the target named is T1, TalrD/GalrD (Salmonella enterica, UniProt Q8ZL58).
T1 sequence (Q8ZL58 1-398): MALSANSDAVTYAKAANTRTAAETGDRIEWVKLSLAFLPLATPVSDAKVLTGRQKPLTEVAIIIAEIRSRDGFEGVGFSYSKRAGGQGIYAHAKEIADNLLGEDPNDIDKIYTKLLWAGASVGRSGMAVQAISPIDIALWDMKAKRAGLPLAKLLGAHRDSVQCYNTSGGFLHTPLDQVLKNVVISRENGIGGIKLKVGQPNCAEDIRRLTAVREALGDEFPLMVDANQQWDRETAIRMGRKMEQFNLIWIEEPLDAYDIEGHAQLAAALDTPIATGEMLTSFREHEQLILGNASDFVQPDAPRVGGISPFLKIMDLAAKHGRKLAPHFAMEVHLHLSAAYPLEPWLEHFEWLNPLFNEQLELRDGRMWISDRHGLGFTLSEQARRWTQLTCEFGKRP
The experiment can be described thus: polarimetry at […] nm, product formation. It counts as biochemical. The conditions noted are these: 10 mM galactarate, 50 mM Hepes pH 8.0, 5 mM MgCl2, room temperature.

As for `O=C(O)[C@@H](O)[C@H](O)[C@H](O)[C@@H](O)C(=O)O` [galactarate], the “polarimetry at 589 nm, product formation” value is given as “TalrD/GalrD produces a product with a positive rotation”.
